Assay results as given in US20210355103A1, “PARG INHIBITORS AND METHOD OF USE THEREOF” (City of Hope, priority 2018, published 2021).

Experiments:
[1] = biological target: T1, PARG (Homo sapiens, UniProt Q86W56); test: PAR digestion assay (dot blotting) for PARG inhibition; format: biochemical; details: 0.25 nM PARG incubated with 10 μM PAR for 20 min at room temperature; dot blotting with anti-PAR antibody
T1 construct: made in house; host or cells: Sf9 insect cells
Experimental: Compounds (FIG. 4) were synthesized to examine the efficacy of PARG inhibition by dot blotting assay (Example 5). 0.25 nM PARG was incubated with 10 μM PAR for 20 min at room temperature with or without inhibitors. PAR-digestion results were analyzed using dot blotting with anti-PAR antibody.
The array includes compounds in FIG. 4 (PG002 (“002”), PG006 (“006”), PG008 (“008”), PG010 (“010”), and PG021(“021”)), PC (positive control, PAR only), NC (negative control, no inhibitor), and COH34 (“34”, positive control for PARG inhibition). In FIG. 5A, 0.3X means 3-fold dilution.
Recombinant PARG protein from Sf9 cells were incubated with PAR purified from FhCh-treated PARG-knock down HCT116 cells (10 μM, calculated as the ADP-ribose unit) and DMSO (Negative control, NC) or small molecules for 20 minutes at room temperature. Positive control (PC) only contains PAR in PBS. Samples (1 μl) were spotted onto a nitrocellulose membrane. Then, the membrane was backed for 30 minutes at 60° C. and blocked with TBST buffer (0.15 M NaCl, 0.01 M Tris-HCl at pH 7.4, 0.1% Tween 20) supplemented with 5% milk for 30 minutes at room temperature. After washing with TBST, the membrane was incubated with monoclonal PAR antibody (Trevigen, Inc.) overnight at 4° C. Following standard Western blotting method, the signals were visualized by chemiluminescent detection (FIG. 5B).

[2] = test system: HCC1937 (BRCA1-mutant breast cancer cells); test: Colony formation (cell viability) assay in HCC1937 cells; format: cell-based; details: HCC1937, 1 μM PARG inhibitor, 14-day culture, colonies >50 cells counted
Experimental: To examine the efficacy of PG compounds in DNA repair-defective cancer cells, colony formation assays were performed using HCC1937 (BRCA1-mutant breast cancer cells) with or without 1 μM PARG inhibitors (PG002, PG006, PG008, and PG010). COH34 was used as a positive control. HCC1937 (˜1000 cells) were seeded into six-well plates and then treated by various doses of PARG inhibitors. After a 14-day culture, the viable cells were fixed by methanol and stained with crystal violet. The number of colonies (>50 cells for each colony) was calculated. The results were summarized in the histograms (FIG. 7).

T1 sequence (Q86W56 whole entry): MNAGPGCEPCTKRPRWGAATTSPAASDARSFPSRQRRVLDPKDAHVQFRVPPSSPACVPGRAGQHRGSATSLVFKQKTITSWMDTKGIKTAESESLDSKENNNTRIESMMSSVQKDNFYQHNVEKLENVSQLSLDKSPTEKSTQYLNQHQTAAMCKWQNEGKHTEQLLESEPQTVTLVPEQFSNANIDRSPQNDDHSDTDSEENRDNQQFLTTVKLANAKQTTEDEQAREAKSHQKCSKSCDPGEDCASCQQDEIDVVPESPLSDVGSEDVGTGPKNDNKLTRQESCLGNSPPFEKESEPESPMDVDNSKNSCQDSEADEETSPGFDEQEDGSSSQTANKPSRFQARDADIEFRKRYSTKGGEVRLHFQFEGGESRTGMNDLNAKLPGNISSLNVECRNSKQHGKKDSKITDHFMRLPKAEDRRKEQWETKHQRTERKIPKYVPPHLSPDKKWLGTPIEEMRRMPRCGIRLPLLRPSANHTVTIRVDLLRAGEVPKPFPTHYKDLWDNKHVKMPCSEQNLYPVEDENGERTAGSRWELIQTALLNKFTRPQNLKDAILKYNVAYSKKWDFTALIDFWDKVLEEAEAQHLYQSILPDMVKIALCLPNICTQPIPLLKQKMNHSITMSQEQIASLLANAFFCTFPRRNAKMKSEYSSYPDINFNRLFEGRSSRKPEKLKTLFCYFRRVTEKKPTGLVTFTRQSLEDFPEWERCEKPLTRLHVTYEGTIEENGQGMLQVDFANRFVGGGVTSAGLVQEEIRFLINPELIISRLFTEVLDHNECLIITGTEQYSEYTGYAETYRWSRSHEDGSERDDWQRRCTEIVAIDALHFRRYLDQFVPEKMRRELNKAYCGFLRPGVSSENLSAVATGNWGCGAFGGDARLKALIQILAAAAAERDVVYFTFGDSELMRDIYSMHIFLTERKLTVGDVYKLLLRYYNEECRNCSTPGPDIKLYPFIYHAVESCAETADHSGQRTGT

SMILES	inhibitory activity for PARG [1]	death of the tumor cells (colony formation) [2]
O=C(N/N=C/c1c(O)ccc2ccccc12)c1ccc(Cl)cn1 [PG002, 5-chloro-N′-[(1E)-(2-hydroxynaphthalen-1-yl)methylidene]pyridine-2-carbohydrazide]	good inhibitory activity	increased death of the tumor cells
O=C(N/N=C/c1nccc2ccccc12)c1ccc(Cl)cc1 [PG006, 4-chloro-N′-[(1E)-(isoquinolin-1-yl)methylidene]benzohydrazide]	good inhibitory activity	increased death of the tumor cells
O=C(N/N=C/c1c(O)cnc2ccccc12)c1ccc(Cl)cc1 [PG008, 4-chloro-N-[(1E)-(3-hydroxyquinolin-4-yl)methylidene]benzohydrazide]	good inhibitory activity	increased death of the tumor cells
O=C(N/N=C/c1c(O)ccc2cccnc12)c1ccc(Cl)cc1 [PG010, 4-chloro-N′-[(1E)-(7-hydroxyquinolin-8-yl)methylidene]benzohydrazide]	good inhibitory activity	increased death of the tumor cells
O=S(=O)(N/N=C/c1c(O)ccc2ccccc12)c1ccc(Cl)cn1 [PG021, 5-chloro-N′-[(1E)-(2-hydroxynaphthalen-1-yl)methylidene]pyridine-2-sulfonohydrazide]	good inhibitory activity	
